Like-named read-outs stand apart in the source and are kept apart here.

This test is described as follows: Saluretic/diuretic screening in rats (method of Lipschitz as modified by Kagawa and Kahn). The conditions noted are these: single oral dose (5 mg/kg oral screen dose), 24 hours; for response vs control in vivo at 5 mg/kg: Rattus norvegicus; for Na/K ratio of the urine discharged: control 3.0. Type of test: in vivo, male LATI CFY rats. The method, then: The compounds of the present invention were compared with Dihydrochlorothiazide and Furosemide in rats by administration of a 5 mg/kg oral screen dose.
The screening tests were carried out on male LATI CFY rats having an average body-weight of 240 g. The animals were kept on standard rat food and starved for 16 hours before the experiment but they received water ad libitum. For evaluation of the diuretic effect, the method of Lipschitz as modified by Kagawa and Kahn [Arch. Int. Pharmacodyn. 137, 241 (1962)] was used.
Effect of a single oral dose of the compounds according to the invention on water, sodium and potassium diuresis during 24 hours as percentage of the simultaneously measured control values as well as their effect on the Na/K ratio of the urine discharged

[1] abbreviates: read-out: K (potassium) diuresis, percentage of the simultaneously measured control values.
The mark [2] stands for this setting: read-out: Na (sodium) diuresis, percentage of the simultaneously measured control values.
Setting [3] is: read-out: Water diuresis, percentage of the simultaneously measured control values.

On to `NS(=O)(=O)c1cc(C(=O)Nn2c(=O)[nH]c3cc(C(=O)O)ccc32)ccc1Cl` [Example 7, 1-(4'-chloro-3'-sulfamoylbenzoyl)-amino-5-carboxybenzimidazolone], for which the “Na/K ratio of the urine discharged” value turned out to be 3.7. Also, the response vs control in vivo at 5 mg/kg under setting [1] was found to be 110%. Further, the response vs control in vivo at 5 mg/kg under setting [2] stood at 133%. Also, the response vs control in vivo at 5 mg/kg under setting [3] came to 129%.

Turning to `CSc1nc2cc(C(=O)O)ccc2n1NC(=O)c1ccc(Cl)c(S(N)(=O)=O)c1` [Example 9, 1-(4'-chloro-3'-sulfamoylbenzoyl)-amino-5-carboxy-2-methylthiobenzimidazole], the “Na/K ratio of the urine discharged” value is given as 3.4. Besides, the response vs control in vivo at 5 mg/kg under setting [1] was determined as 95%. For the same molecule, the response vs control in vivo at 5 mg/kg under setting [2] is 105%. Besides, under setting [3], the response vs control in vivo at 5 mg/kg turned out to be 99%.

With `Cc1nc2cc(C(=O)O)ccc2n1NC(=O)c1ccc(Cl)c(S(N)(=O)=O)c1` [Example 16, 1-(4'-chloro-3'-sulfamoylbenzoyl)amino-5-carboxy-2-methylbenzimidazole], the “Na/K ratio of the urine discharged” value turned out to be 3.3. In addition, the response vs control in vivo at 5 mg/kg under setting [1] was 109%. Moreover, under setting [2], the response vs control in vivo at 5 mg/kg is 117%. Under setting [3], the response vs control in vivo at 5 mg/kg worked out at 111%.

With `NS(=O)(=O)c1cc(C(=O)Nn2cnc3cc(C(=O)O)ccc32)ccc1Cl` [Example 19, 1-(4'-chloro-3'-sulfamoylbenzoyl)amino-5-carboxybenzimidazole], the “Na/K ratio of the urine discharged” value is listed as 3.1. Under setting [1], the response vs control in vivo at 5 mg/kg came to 120%. The response vs control in vivo at 5 mg/kg under setting [2] worked out at 121%. In addition, the response vs control in vivo at 5 mg/kg under setting [3] was 117%.

Consider `NS(=O)(=O)c1cc(C(=O)Nn2cnc3ccccc32)ccc1Cl` [Example 22, 1-(4'-chloro-3'-sulfamoylbenzoyl)-aminobenzimidazole], for which the “Na/K ratio of the urine discharged” value came out at 3.7. In addition, the response vs control in vivo at 5 mg/kg under setting [1] was found to be 103%. Moreover, under setting [2], the response vs control in vivo at 5 mg/kg is 99%. Further, the response vs control in vivo at 5 mg/kg under setting [3] came to 107%.

Take `Cc1nc2ccccc2n1NC(=O)c1ccc(Cl)c(S(N)(=O)=O)c1` [Example 23, 1-(4'-chloro-3'-sulfamoylbenzoyl)amino-2-methylbenzimidazole]: the “Na/K ratio of the urine discharged” value came to 4.0. Further, the response vs control in vivo at 5 mg/kg under setting [1] came to 102%. Further, the response vs control in vivo at 5 mg/kg under setting [2] stood at 105%. Further, the response vs control in vivo at 5 mg/kg under setting [3] amounted to 98%.

`NS(=O)(=O)c1ccc2c(c1)[nH]c(=S)n2NC(=O)c1ccc(Cl)c(S(N)(=O)=O)c1` [Example 24, 1-(4'-chloro-3'-sulfamoylbenzoyl)amino-5-sulfamoylbenzimidazole-2-thione]: the “Na/K ratio of the urine discharged” value is 3.9. In addition, the response vs control in vivo at 5 mg/kg under setting [1] stood at 104%. In addition, the response vs control in vivo at 5 mg/kg under setting [2] amounted to 104%. The response vs control in vivo at 5 mg/kg under setting [3] was 108%.

In the case of `NS(=O)(=O)c1cc(C(=O)Nn2cnc3cc(C(F)(F)F)ccc32)ccc1Cl` [Example 26, 1-(4'-chloro-3'-sulfamoylbenzoyl)amino-5-trifluoromethylbenzimidazole], the “Na/K ratio of the urine discharged” value was 4.0. For the same molecule, the response vs control in vivo at 5 mg/kg under setting [1] was 106%. Moreover, the response vs control in vivo at 5 mg/kg under setting [2] is 108%. Besides, under setting [3], the response vs control in vivo at 5 mg/kg worked out at 107%.

With `Cc1nc2cc(C(F)(F)F)ccc2n1NC(=O)c1ccc(Cl)c(S(N)(=O)=O)c1` [Example 27, 1-(4'-chloro-3'-sulfamoylbenzoyl)amino-2-methyl-5-trifluoromethylbenzimidazole], the “Na/K ratio of the urine discharged” value was 4.3. The response vs control in vivo at 5 mg/kg under setting [1] worked out at 85%. The response vs control in vivo at 5 mg/kg under setting [2] amounted to 94%. The response vs control in vivo at 5 mg/kg under setting [3] came to 95%.

With `NS(=O)(=O)c1cc(C(=O)Nn2c(-c3ccccc3)nc3cc(C(F)(F)F)ccc32)ccc1Cl` [Example 29, 1-(4'-chloro-3'-sulfamoylbenzoyl)amino-2-phenyl-5-trifluoromethylbenzimidazole], the “Na/K ratio of the urine discharged” value worked out at 2.9. Besides, under setting [1], the response vs control in vivo at 5 mg/kg turned out to be 105%. Moreover, the response vs control in vivo at 5 mg/kg under setting [2] came to 101%. For the same molecule, under setting [3], the response vs control in vivo at 5 mg/kg came out at 97%.

Values taken from patent US4916149A, “Diuretic and saluretic 4-chloro-3-sulfamoylbenzoic acid hydrazides” (Chinoin Gyogyszer es Vegyeszeti Termekek Gyara Rt., priority 1987, dated 1990).
